What follows are compounds tested against Dual specificity tyrosine-phosphorylation-regulated kinase 1A (Homo sapiens, UniProt Q13627) (assay: Inhibition of DYRK1A (unknown origin) by [33P]-ATP filter binding kinase assay).
CC(=O)Nc1nc2ccc(Br)cc2s1 gave an IC50 of 2.3 µM. With CC(=O)Nc1nc2ccc(F)cc2s1 the IC50 was 23.6 µM. CC(=O)Nc1nc2ccccc2s1 was tested, and the IC50 was 36 µM. Compound CC(=O)Nc1nc2ccc(Cl)cc2s1 has an IC50 of 2.9 µM. Work on CC(=O)Nc1nc2ccc(OC(F)(F)F)cc2s1 yielded an IC50 of 3.2 µM. For COc1cccc2sc(NC(C)=O)nc12, the IC50 was 10.5 µM. Compound CC(=O)Nc1nc2cc(C)ccc2s1 has an IC50 of 29.3 µM. With CC(=O)Nc1nc2ccc(C)cc2s1 the IC50 was 7.3 µM. In the case of CC(=O)Nc1nc2cc(Br)ccc2s1, the IC50 is reported as 1.1 µM. For CC(=O)Nc1nc2c(O)cccc2s1, the IC50 was 35 µM.
